Measurements from patent publication US6737383B1, “Herbicidal oxadiazolidines” (priority 1999, dated 2004).

Assays:
[1] = tested on: purple nutsedge; test: Test B pre/postemergence purple nutsedge; assay type: in vivo, Cyperus rotundus
Outline: (§1)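 Test chemicals in a non-phytotoxic solvent mixture with surfactant were sprayed preemergence onto planted seeds and postemergence onto plants 2 to 18 cm tall (1- to 4-leaf stage). After twelve to sixteen days in a greenhouse, injury was visually rated against untreated controls from 0 (no effect) to 10 (complete control).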

[2] = tested on: velvetleaf; test: Test B pre/postemergence velvetleaf; assay type: in vivo, Abutilon theophrasti
Outline: as §1

[3] = tested on: rape; test: Test B pre/postemergence rape; assay type: in vivo, Brassica napus
Outline: as §1

[4] = tested on: blackgrass; test: Test B pre/postemergence blackgrass; assay type: in vivo, Alopecurus myosuroides
Outline: as §1

[5] = tested on: corn; test: Test B pre/postemergence corn; assay type: in vivo, Zea mays
Outline: as §1

[6] = tested on: soybean; test: Test B pre/postemergence soybean; assay type: in vivo, Glycine max
Outline: as §1

[7] = tested on: wild oat; test: Test B pre/postemergence wild oat; assay type: in vivo, Avena fatua
Outline: as §1

[8] = tested on: sugar beet; test: Test B pre/postemergence sugar beet; assay type: in vivo, Beta vulgaris
Outline: as §1

[9] = tested on: bedstraw; test: Test B pre/postemergence bedstraw; assay type: in vivo, Galium aparine
Outline: as §1

[10] = tested on: morningglory; test: Test B pre/postemergence morningglory; assay type: in vivo, Ipomoea hederacea
Outline: as §1

[11] = tested on: cocklebur; test: Test B pre/postemergence cocklebur; assay type: in vivo, Xanthium strumarium
Outline: as §1

[12] = tested on: pigweed; test: Test B pre/postemergence pigweed; assay type: in vivo, Amaranthus retroflexus
Outline: as §1

[13] = tested on: giant foxtail; test: Test B pre/postemergence giant foxtail; assay type: in vivo, Setaria faberii
Outline: as §1

[14] = tested on: crabgrass; test: Test B pre/postemergence crabgrass; assay type: in vivo, Digitaria sanguinalis
Outline: as §1

[15] = tested on: surinam grass; test: Test B pre/postemergence surinam grass; assay type: in vivo, Brachiaria decumbens
Outline: as §1

[16] = tested on: wheat; test: Test B pre/postemergence wheat; assay type: in vivo, Triticum aestivum
Outline: as §1

[17] = Postemergence, Rate 62 g/ha, scale 0 to 10, 0 is no effect, 10 is complete control
[18] = Postemergence, Rate 125 g/ha, scale of 0 to 10 where 0 is no effect and 10 is complete control
[19] = Preemergence, Rate 125 g/ha, scale of 0 to 10 where 0 is no effect and 10 is complete control
[20] = Preemergence, Rate 250 g/ha, scale 0 (no effect) to 10 (complete control)
[21] = Rate 62 g/ha, Preemergence, scale 0 to 10
[22] = Rate 250 g/ha, Postemergence, scale 0 to 10, 0 is no effect, 10 is complete control
[23] = Rate 500 g/ha, Preemergence, scale 0 to 10 (0 no effect, 10 complete control)
[24] = Rate 500 g/ha, Postemergence, scale 0 to 10, 0 is no effect, 10 is complete control

CC(C)N(C(=O)n1oc(=O)n(CCCCl)c1=O)c1ccccc1 [Compound 750]
Plant response rating, Nutsedge [1, 17]: 0 | Nutsedge plant response rating [1, 18]: 0 | Plant response rating, Nutsedge [1, 19]: 0 | Nutsedge plant response rating [1, 20]: 7 | Nutsedge plant response rating [1, 21]: 0 | Nutsedge plant response rating [1, 22]: 7 | Nutsedge plant response rating [1, 23]: 9 | Plant response rating, Velvetleaf [2, 17]: 0 | Velvetleaf plant response rating [2, 18]: 3 | Plant response rating, Velvetleaf [2, 19]: 0 | Velvetleaf plant response rating [2, 20]: 7 | Velvetleaf plant response rating [2, 21]: 0 | Velvetleaf plant response rating [2, 22]: 5 | Velvetleaf plant response rating [2, 24]: 6 | Velvetleaf plant response rating [2, 23]: 7 | Plant response rating, Rape [3, 17]: 0 | Rape plant response rating [3, 18]: 4 | Plant response rating, Rape [3, 19]: 0 | Rape plant response rating [3, 20]: 8 | Rape plant response rating [3, 21]: 0 | Rape plant response rating [3, 22]: 6 | Rape plant response rating [3, 24]: 7 | Plant response rating, Blackgrass [4, 17]: 4 | Blackgrass plant response rating [4, 18]: 7 | Plant response rating, Blackgrass [4, 19]: 8 | Blackgrass plant response rating [4, 20]: 8 | Blackgrass plant response rating [4, 21]: 7 | Blackgrass plant response rating [4, 22]: 7 | Blackgrass plant response rating [4, 24]: 8 | Plant response rating, Corn [5, 17]: 0 | Corn plant response rating [5, 18]: 0 | Plant response rating, Corn [5, 19]: 3 | Corn plant response rating [5, 21]: 0 | Corn plant response rating [5, 22]: 0 | Corn plant response rating [5, 24]: 5 | Corn plant response rating [5, 23]: 6 | Plant response rating, Soybean [6, 17]: 2 | Soybean plant response rating [6, 18]: 6 | Plant response rating, Soybean [6, 19]: 0 | Soybean plant response rating [6, 20]: 5 | Soybean plant response rating [6, 21]: 0 | Soybean plant response rating [6, 22]: 7 | Soybean plant response rating [6, 24]: 7 | Soybean plant response rating [6, 23]: 5 | Plant response rating, Wild oats [7, 17]: 0 | Wild oats plant response rating [7, 18]: 0 | Plant response rating, Wild oats [7, 19]: 5 | Wild oats plant response rating [7, 20]: 7 | Wild oats plant response rating [7, 21]: 0 | Wild oats plant response rating [7, 22]: 0 | Wild oats plant response rating [7, 24]: 0 | Plant response rating, Sugarbeets [8, 17]: 0 | Sugarbeets plant response rating [8, 18]: 3 | Plant response rating, Sugarbeets [8, 19]: 3 | Sugarbeets plant response rating [8, 20]: 5 | Sugarbeets plant response rating [8, 21]: 1 | Sugarbeets plant response rating [8, 22]: 3 | Sugarbeets plant response rating [8, 24]: 6 | Plant response rating, Bedstraw [9, 17]: 5 | Plant response rating, Bedstraw [9, 19]: 0 | Bedstraw plant response rating [9, 20]: 0 | Bedstraw plant response rating [9, 21]: 0 | Bedstraw plant response rating [9, 22]: 7 | Bedstraw plant response rating [9, 24]: 10 | Plant response rating, Morningglory [10, 17]: 3 | Morningglory plant response rating [10, 18]: 3 | Plant response rating, Morningglory [10, 19]: 0 | Morningglory plant response rating [10, 20]: 6 | Morningglory plant response rating [10, 21]: 0 | Morningglory plant response rating [10, 22]: 8 | Morningglory plant response rating [10, 24]: 10 | Morningglory plant response rating [10, 23]: 6 | Plant response rating, Cocklebur [11, 17]: 0 | Cocklebur plant response rating [11, 18]: 0 | Plant response rating, Cocklebur [11, 19]: 0 | Cocklebur plant response rating [11, 20]: 0 | Cocklebur plant response rating [11, 21]: 0 | Cocklebur plant response rating [11, 22]: 1 | Cocklebur plant response rating [11, 24]: 3 | Cocklebur plant response rating [11, 23]: 0 | Plant response rating, Redroot pigweed [12, 17]: 4 | Redroot pigweed plant response rating [12, 18]: 7 | Plant response rating, Redroot pigweed [12, 19]: 9 | Redroot pigweed plant response rating [12, 20]: 10 | Redroot pigweed plant response rating [12, 21]: 7 | Redroot pigweed plant response rating [12, 22]: 7 | Redroot pigweed plant response rating [12, 24]: 7 | Plant response rating, Giant foxtail [13, 17]: 9 | Giant foxtail plant response rating [13, 18]: 8 | Plant response rating, Giant foxtail [13, 19]: 10 | Giant foxtail plant response rating [13, 20]: 10 | Giant foxtail plant response rating [13, 21]: 9 | Giant foxtail plant response rating [13, 22]: 8 | Giant foxtail plant response rating [13, 24]: 8 | Giant foxtail plant response rating [13, 23]: 10 | Plant response rating, Crabgrass [14, 17]: 7 | Crabgrass plant response rating [14, 18]: 9 | Plant response rating, Crabgrass [14, 19]: 9 | Crabgrass plant response rating [14, 20]: 9 | Crabgrass plant response rating [14, 21]: 9 | Crabgrass plant response rating [14, 22]: 9 | Crabgrass plant response rating [14, 23]: 10 | Plant response rating, B. signalgrass [15, 17]: 0 | B. signalgrass plant response rating [15, 18]: 2 | B. signalgrass plant response rating ([15]; Preemergence, Rate 62 g/ha, scale of 0 to 10 where 0 is no effect and 10 is complete control): 5 | Plant response rating, B. signalgrass [15, 19]: 10 | B. signalgrass plant response rating [15, 20]: 8 | B. signalgrass plant response rating [15, 22]: 6 | B. signalgrass plant response rating [15, 24]: 6 | Plant response rating, Wheat [16, 17]: 0 | Wheat plant response rating [16, 18]: 0 | Plant response rating, Wheat [16, 19]: 4 | Wheat plant response rating [16, 20]: 5 | Wheat plant response rating [16, 21]: 2 | Wheat plant response rating [16, 22]: 2 | Wheat plant response rating [16, 24]: 2
